{"source": "patent US10086027B1", "about": "“Green synthesis of katononic acid nanosheets” (KING SAUD UNIVERSITY, priority 2018, dated 2018)", "experiment_in_all_cases": "Antimicrobial activity, diffusion agar technique", "format_in_all_cases": "cell-based", "details_in_all_cases": "well diameter 6.0 mm, 100 μl", "key": {"[1]": {"test_system": "Candida albicans (RCMB 05036)", "procedure": "(§1) The antimicrobial effect of the katononic acid nanosheets was evaluated against gram positive bacteria, gram negative bacteria, and fungi. The diffusion agar technique was used with a well diameter of 6.0 mm and 100 μl of katononic acid nanosheets."}, "[2]": {"test_system": "Geotricum candidum (RCMB 05097)", "procedure": "as §1"}, "[3]": {"test_system": "Absidia corymbffera (RCMB 02564)", "procedure": "as §1"}, "[4]": {"test_system": "Klebsiella pneumoniae (RCMB 0010093)", "procedure": "as §1"}, "[5]": {"test_system": "Proteous vulgaris (RCMB 010085)", "procedure": "as §1"}, "[6]": {"test_system": "Salmonella enteritidis (RCMB 010084)", "procedure": "as §1"}, "[7]": {"test_system": "Streptococcus pyogenes (RCMB 010015)", "procedure": "as §1"}, "[8]": {"test_system": "Staphylococcus epidermidis (RCMB 010024)", "procedure": "as §1"}, "[9]": {"test_system": "Staphylococcus aureus (RCMB 010027)", "procedure": "as §1"}}, "data": [{"molecule": "C[C@@H]1[C@H](O)[C@@H](C)/C=C/C=C/C=C/C=C/C=C/C=C/C=C/[C@H](O[C@@H]2O[C@H](C)[C@@H](O)[C@H](N)[C@@H]2O)C[C@@H]2O[C@](O)(C[C@@H](O)C[C@@H](O)[C@H](O)CC[C@@H](O)C[C@@H](O)CC(=O)O[C@H]1C)C[C@H](O)[C@H]2C(=O)O", "note": "[Amphotericin B]", "values": [{"measurement": "Zone of Inhibition (±SD)", "setting": "[1]", "value": "25.7 ± 0.10"}, {"measurement": "Zone of Inhibition (±SD)", "setting": "[2]", "value": "27.0 ± 0.20"}, {"measurement": "Zone of Inhibition (±SD)", "setting": "[3]", "value": "23.0 ± 0.10"}]}, {"molecule": "Gentamycin", "values": [{"measurement": "Zone of Inhibition (±SD)", "setting": "[4]", "value": "26.4 ± 0.15"}, {"measurement": "Zone of Inhibition (±SD)", "setting": "[5]", "value": "23.4 ± 0.30"}, {"measurement": "Zone of Inhibition (±SD)", "setting": "[6]", "value": "25.2 ± 0.18"}]}, {"molecule": "CC1(C)S[C@@H]2[C@H](NC(=O)[C@H](N)c3ccccc3)C(=O)N2[C@H]1C(=O)O", "note": "[Ampicillin]", "values": [{"measurement": "Zone of Inhibition (±SD)", "setting": "[7]", "value": "26.3 ± 0.34"}, {"measurement": "Zone of Inhibition (±SD)", "setting": "[8]", "value": "25.0 ± 0.18"}, {"measurement": "Zone of Inhibition (±SD)", "setting": "[9]", "value": "27.3 ± 0.14"}]}]}
